Experimental data: BigSolDB 2.1

CCCCCCCC(=O)NCC(=O)O
Conditions	solubility (mole fraction)
in 2-butanone, 273.15 K	0.0123
in 2-butanone, 278.15 K	0.0153
in 2-butanone, 283.15 K	0.0199
in 2-butanone, 288.35 K	0.0266
in 2-butanone, 293.05 K	0.0304
in 2-butanone, 298.15 K	0.0379
in 2-butanone, 303.15 K	0.0457
in 2-butanone, 308.05 K	0.0561
in 2-butanone, 313.25 K	0.0667
in 2-butanone, 317.65 K	0.0806
in 2-butanone, 323.15 K	0.0951
in 2-pentanone, 273.15 K	0.00491
in 2-pentanone, 278.15 K	0.00666
in 2-pentanone, 283.15 K	0.00984
in 2-pentanone, 288.35 K	0.0148
in 2-pentanone, 293.05 K	0.0178
in 2-pentanone, 298.15 K	0.0244
in 2-pentanone, 303.15 K	0.032
in 2-pentanone, 308.05 K	0.0431
in 2-pentanone, 313.25 K	0.0552
in 2-pentanone, 317.65 K	0.0723
in 2-pentanone, 323.15 K	0.0915
in acetone, 273.15 K	0.0146
in acetone, 278.15 K	0.0189
in acetone, 283.15 K	0.0261
in acetone, 288.35 K	0.0369
in acetone, 293.05 K	0.0432
in acetone, 298.15 K	0.0562
in acetone, 303.15 K	0.0706
in acetone, 308.05 K	0.0905
in acetone, 313.25 K	0.111
in acetone, 317.65 K	0.14
in acetone, 323.15 K	0.171
in cyclohexanone, 273.15 K	0.0112
in cyclohexanone, 278.15 K	0.0149
in cyclohexanone, 283.15 K	0.0214
in cyclohexanone, 288.35 K	0.0315
in cyclohexanone, 293.05 K	0.0378
in cyclohexanone, 298.15 K	0.0508
in cyclohexanone, 303.15 K	0.0656
in cyclohexanone, 308.05 K	0.0866
in cyclohexanone, 313.25 K	0.11
in cyclohexanone, 317.65 K	0.141
in cyclohexanone, 323.15 K	0.177
in cyclopentanone, 273.15 K	0.0144
in cyclopentanone, 278.15 K	0.019
in cyclopentanone, 283.15 K	0.0269
in cyclopentanone, 288.35 K	0.039
in cyclopentanone, 293.05 K	0.0464
in cyclopentanone, 298.15 K	0.0616
in cyclopentanone, 303.15 K	0.0789
in cyclopentanone, 308.05 K	0.103
in cyclopentanone, 313.25 K	0.129
in cyclopentanone, 317.65 K	0.164
in cyclopentanone, 323.15 K	0.203
in ethanol, 273.15 K	0.0116
in ethanol, 278.15 K	0.0176
in ethanol, 283.15 K	0.0266
in ethanol, 288.35 K	0.0401
in ethanol, 293.05 K	0.0575
in ethanol, 298.15 K	0.0833
in ethanol, 303.15 K	0.119
in ethanol, 308.05 K	0.168
in ethanol, 313.25 K	0.237
in ethanol, 317.65 K	0.314
in ethanol, 323.15 K	0.447
in ethyl acetate, 273.15 K	0.00218
in ethyl acetate, 278.15 K	0.00301
in ethyl acetate, 283.15 K	0.00455
in ethyl acetate, 288.35 K	0.00705
in ethyl acetate, 293.05 K	0.00866
in ethyl acetate, 298.15 K	0.0121
in ethyl acetate, 303.15 K	0.0162
in ethyl acetate, 308.05 K	0.0223
in ethyl acetate, 313.25 K	0.029
in ethyl acetate, 317.65 K	0.0389
in ethyl acetate, 323.15 K	0.0502
in ethyl formate, 273.15 K	0.0016
in ethyl formate, 278.15 K	0.00226
in ethyl formate, 283.15 K	0.00348
in ethyl formate, 288.35 K	0.00555
in ethyl formate, 293.05 K	0.00688
in ethyl formate, 298.15 K	0.00981
in ethyl formate, 303.15 K	0.0133
in ethyl formate, 308.05 K	0.0186
in ethyl formate, 313.25 K	0.0247
in ethyl formate, 317.65 K	0.0336
in ethyl formate, 323.15 K	0.0439
in isobutanol, 273.15 K	0.0204
in isobutanol, 278.15 K	0.0259
in isobutanol, 283.15 K	0.0327
in isobutanol, 288.35 K	0.0412
in isobutanol, 293.05 K	0.0503
in isobutanol, 298.15 K	0.0622
in isobutanol, 303.15 K	0.0762
in isobutanol, 308.05 K	0.0919
in isobutanol, 313.25 K	0.112
in isobutanol, 317.65 K	0.131
in isobutanol, 323.15 K	0.159
in isopentanol, 273.15 K	0.0276
in isopentanol, 278.15 K	0.0347
in isopentanol, 283.15 K	0.0434
in isopentanol, 288.35 K	0.0543
in isopentanol, 293.05 K	0.0657
in isopentanol, 298.15 K	0.0805
in isopentanol, 303.15 K	0.0978
in isopentanol, 308.05 K	0.117
in isopentanol, 313.25 K	0.142
in isopentanol, 317.65 K	0.166
in isopentanol, 323.15 K	0.2
in isopropanol, 273.15 K	0.0153
in isopropanol, 278.15 K	0.0193
in isopropanol, 283.15 K	0.0239
in isopropanol, 288.35 K	0.0298
in isopropanol, 293.05 K	0.0362
in isopropanol, 298.15 K	0.0441
in isopropanol, 303.15 K	0.0533
in isopropanol, 308.05 K	0.064
in isopropanol, 313.25 K	0.0769
in isopropanol, 317.65 K	0.0895
in isopropanol, 323.15 K	0.108
in methanol, 273.15 K	0.0347
in methanol, 278.15 K	0.0478
in methanol, 283.15 K	0.0653
in methanol, 288.35 K	0.0891
in methanol, 293.05 K	0.117
in methanol, 298.15 K	0.156
in methanol, 303.15 K	0.204
in methanol, 308.05 K	0.263
in methanol, 313.25 K	0.343
in methanol, 317.65 K	0.425
in methanol, 323.15 K	0.555
in methyl acetate, 273.15 K	0.00203
in methyl acetate, 278.15 K	0.00288
in methyl acetate, 283.15 K	0.00448
in methyl acetate, 288.35 K	0.00718
in methyl acetate, 293.05 K	0.00895
in methyl acetate, 298.15 K	0.0128
in methyl acetate, 303.15 K	0.0174
in methyl acetate, 308.05 K	0.0245
in methyl acetate, 313.25 K	0.0327
in methyl acetate, 317.65 K	0.0444
in methyl acetate, 323.15 K	0.0586
in n-butanol, 273.15 K	0.0228
in n-butanol, 278.15 K	0.0313
in n-butanol, 283.15 K	0.0425
in n-butanol, 288.35 K	0.0577
in n-butanol, 293.05 K	0.0755
in n-butanol, 298.15 K	0.0993
in n-butanol, 303.15 K	0.13
in n-butanol, 308.05 K	0.167
in n-butanol, 313.25 K	0.217
in n-butanol, 317.65 K	0.268
in n-butanol, 323.15 K	0.347
in n-pentanol, 273.15 K	0.0226
in n-pentanol, 278.15 K	0.0308
in n-pentanol, 283.15 K	0.0413
in n-pentanol, 288.35 K	0.0559
in n-pentanol, 293.05 K	0.0724
in n-pentanol, 298.15 K	0.095
in n-pentanol, 303.15 K	0.123
in n-pentanol, 308.05 K	0.157
in n-pentanol, 313.25 K	0.202
in n-pentanol, 317.65 K	0.249
in n-pentanol, 323.15 K	0.32
in n-propanol, 273.15 K	0.0174
in n-propanol, 278.15 K	0.0254
in n-propanol, 283.15 K	0.0363
in n-propanol, 288.35 K	0.0522
in n-propanol, 293.05 K	0.0715
in n-propanol, 298.15 K	0.1
in n-propanol, 303.15 K	0.137
in n-propanol, 308.05 K	0.185
in n-propanol, 313.25 K	0.251
in n-propanol, 317.65 K	0.323
in n-propanol, 323.15 K	0.439
